In paper PMC11208559 (Scientific Reports, 2024):
Structures can show the parent of a compound that is named as a salt.

Assays:
CD-1 mice [1] = assay: 52 °C tail-flick assay, morphine anti-nociception after Hsp90 inhibitor treatment; format: in vivo; settings: for A50 (morphine anti-nociceptive potency), tail flick: 24 h
Procedure: (§1) Pre-injection tail-flick baselines were determined in a 52 °C tail-flick assay with a 10-s cutoff time (method also reported in Ref.[13]). […] No animals were excluded from these studies.

CD-1 mice [2] = assay: Post-surgical paw incision, mechanical allodynia (von Frey), morphine anti-nociception; format: in vivo
Procedure: Mechanical thresholds were determined prior to surgery using calibrated von Frey filaments (Ugo Basile, Varese, Italy) with the up-down method and four measurements after the first response per mouse as in Ref.[27] and our previously published work (e.g. Ref.[28]). The mice were housed in a homemade apparatus with Plexiglas walls and ceiling and a wire mesh floor (3-inch wide 4-inch long 3-inch high with 0.25-inch wire mesh). The surgery was then performed by anesthesia with ~ 2% isoflurane in standard air, preparation of the left plantar hind paw with iodine and 70% ethanol, and a 5-mm incision made through the skin and fascia with a no. 11 scalpel. The muscle was elevated with curved forceps leaving the origin and insertion intact, and the muscle was split lengthwise using the scalpel. The wound was then closed with 5–0 polyglycolic acid sutures. Mice were then injected with inhibitor or Vehicle control and left to recover for 24 h. Our intrathecal (i.t.) injection protocol is reported in Refs.[13],[29]; briefly, the injection was made in awake and restrained animals with a 10 μL Hamilton syringe and 30 g needle (5–7 μL volume) between the L5-L6 vertebrae at a 45° angle, with placement validated by tail twitch. Since the injection was made through skin with no incision or other surgical intervention, repeated injection protocols were performed the same way. The next day, the mechanical threshold was again determined as described above. […] . No animals were excluded from these studies.

CD-1 mice [3] = assay: HIV peripheral neuropathy (gp120), mechanical threshold, morphine anti-nociception; format: in vivo; settings: for A50 (morphine anti-nociceptive potency), HIV neuropathy: %MPE, 95% CI in parentheses
Procedure: Mechanical threshold baselines were measured prior to any treatment on the left hind paw using von Frey filaments. HIV peripheral neuropathy was induced by intrathecal injection of gp120 IIIb protein (SPEED BioSystems, Gaithersburg, MD, Cat# YCP1549, 15 ng/μl in 0.1 M PBS and 0.1% BSA, 7-μl volume) using our previously established protocol[13] on days 1, 3, and 5. On day 20 a second mechanical threshold baseline was measured on the left hind paw using von Frey filaments and then KU-32 or Vehicle was injected i.t with a 24-h treatment time. […] . No animals were excluded from these studies.

CD-1 mice [4] = assay: Morphine anti-nociceptive tolerance and tolerance rescue (tail flick); format: in vivo; settings: for A50 of morphine, Day 1 of tolerance regimen / A50 of morphine, Day 4 of tolerance regimen: twice daily 1–10 mg/kg morphine s.c., tail flick, 95% CI in parentheses
Procedure: as §1

CD-1 mice [5] = assay: Conditioned place preference (morphine reward); settings: Vehicle i.t. over 4 days with 3.2–10 mg/kg morphine s.c.; 95% CI in parentheses
Excerpt: Rigs were designed to consist of two chambers with one connecting chamber. Of the two conditioned chambers, one consisted of black and grey dotted walls with a textured floor. The other chamber consisted of black and grey striped walls with smooth floor. Chamber floors connected to a pressure sensor which transferred ongoing data to a computer running PPC WIN 2.0 software (Harvard Apparatus). Prior to preference training baselines were taken on day 0. […] Chambers were cleaned thoroughly with VersaClean and allowed to dry in-between mice. […] Half of each group paired morphine with the striped chamber and the other half to the dotted chamber in an unbiased design. At ~ 12 pm mice were then given a second injection of either saline or morphine which was paired to the opposite chamber. […] Raw data in the form of seconds and percentage spent in each chamber was exported from PPC WIN 2.0 as an excel file and transferred to GraphPad Prism 9.3 (San Diego, CA) for further analysis.
All data were reported as the mean ± SEM and normalized where appropriate as described above. The behavioral data from each individual dose were reported raw without maximum possible effect (MPE) or other normalization. Data for dose/response curves (except CPP) were normalized to %MPE using peak effect, except for constipation, which used Area Under the Curve [MPE = (Response-Baseline)/(Threshold – Baseline) * 100]. […]

CD-1 mice [6] = assay: Opioid induced constipation (fecal production over 6 h)
Excerpt: The feces were counted and weighed in 1-h bins and used to construct a cumulative plot. Morphine-treated groups were normalized to saline groups and represented as a percentage at each timepoint.
All data were reported as the mean ± SEM and normalized where appropriate as described above. The behavioral data from each individual dose were reported raw without maximum possible effect (MPE) or other normalization. Data for dose/response curves (except CPP) were normalized to %MPE using peak effect, except for constipation, which used Area Under the Curve [MPE = (Response-Baseline)/(Threshold – Baseline) * 100]. […] Technical replicates and further details are described in the Figure Legends. […] Statistical comparisons of individual dose/response curve time courses were performed using Repeated Measures 2-Way ANOVA with Sidak’s (tail flick, paw incision, HIV neuropathy, tolerance rescue, constipation, respiratory depression) or Tukey’s (tolerance, CPP) post hoc tests. The Geisser-Greenhouse correction was used to account for a potential lack of sphericity of the data, permitting valid Repeated Measures ANOVA. ANOVA post hoc tests were only performed when ANOVA F values indicated a significant difference, and there was homogeneity of variance (permitting parametric analysis). In all cases, significance was defined as p < 0.05. The group sizes reported represent independent individual mice tested in each assay. All graphing and statistical analyses were performed using GraphPad Prism 9.3.

[7] = 0.01 nmol KU-32 i.t. vs Vehicle

What does the source list for `CN1CC[C@]23c4c5ccc(O)c4O[C@H]2[C@@H](O)C=C[C@H]3[C@H]1C5` [morphine, Morphine sulfate pentahydrate, reference compound]?
A50 (morphine anti-nociceptive potency), tail flick (CD-1 mice [1]; Vehicle i.t., then 1–10 mg/kg morphine s.c., %MPE, 95% CI in parentheses): 3.0 (2.5–3.7) mg/kg; A50 (morphine anti-nociceptive potency), tail flick (CD-1 mice [1]; Vehicle i.v. (control of KUNB106 experiment, Fig. 9E), then 1–5.6 mg/kg morphine s.c.): 5.6 (4.4–∞) mg/kg; A50 (morphine anti-nociceptive potency), tail flick (CD-1 mice [1]; Vehicle i.v. (control of KUNG65 experiment, Fig. 8F), then 1–5.6 mg/kg morphine s.c.): 3.6 (2.9–4.6) mg/kg; A50 (morphine anti-nociceptive potency), paw incision (CD-1 mice [2]; Vehicle i.t., 24 h, then morphine s.c., %MPE, 95% CI in parentheses): 2.4 (2.0–2.8) mg/kg; A50 (morphine anti-nociceptive potency), paw incision (CD-1 mice [2]; Vehicle i.v. (control of KUNB106 experiment, Fig. S7B), then 1–3.2 mg/kg morphine s.c.): 2.5 (2.0–∞) mg/kg; A50 (morphine anti-nociceptive potency), paw incision (CD-1 mice [2]; Vehicle i.v. (control of KUNG65 experiment, Fig. S6B), then 1–3.2 mg/kg morphine s.c.): 2.0 (1.4–3.0) mg/kg; A50 (morphine anti-nociceptive potency), HIV neuropathy (CD-1 mice [3]; Vehicle i.t. on day 20, 24 h, then morphine s.c.): 4.2 (3.7–4.8) mg/kg; A50 of morphine, Day 1 of tolerance regimen (CD-1 mice [4]; daily Vehicle i.t.): 5.2 (3.9–7.5) mg/kg; A50 of morphine, Day 4 of tolerance regimen (CD-1 mice [4]; daily Vehicle i.t.): 110 (30–6300) mg/kg; A50 (morphine reward potency, CPP % Difference Score) (CD-1 mice [5]): 5.1 (2.7–7.7) mg/kg; constipation compared to saline-injected controls (CD-1 mice [6]; 1 mg/kg morphine s.c.): ~ 40%; constipation compared to saline-injected controls (plateau) (CD-1 mice [6]; 3.2–10 mg/kg morphine s.c.): ~ 70%; A50 (morphine constipation potency) (CD-1 mice [6]; Vehicle i.t., 24 h, then morphine s.c., 6-h AUC, %MPE, 95% CI in parentheses): 0.67 (0.32–0.94) mg/kg

`CO[C@@H]1[C@@H](O)[C@@H](O)[C@H](Oc2ccc3cc(NC(C)=O)c(=O)oc3c2C)OC1(C)C` [KU-32] was tested. Which “fold increase in morphine potency, tail flick” value (CD-1 mice [1]; [7]) did it give?
Its value is 1.9 fold.

What about the “A50 (morphine anti-nociceptive potency), tail flick” value (CD-1 mice [1]; 0.01 nmol KU-32 i.t., then 1–10 mg/kg morphine s.c., %MPE, 95% CI in parentheses) of the same compound?
Its value is 1.6 (1.3–2.0) mg/kg.

What about the “fold increase in morphine potency, paw incision” value (CD-1 mice [2]; [7]) of the same compound?
Its value is 2.8 fold.

What about the “A50 (morphine anti-nociceptive potency), paw incision” value (CD-1 mice [2]; 0.01 nmol KU-32 i.t., 24 h, then 0.32–5.6 mg/kg morphine s.c., %MPE, 95% CI in parentheses) of the same compound?
Its value is 0.85 (0.64–1.1) mg/kg.

What about the “A50 (morphine anti-nociceptive potency), HIV neuropathy” value (CD-1 mice [3]; 0.01 nmol KU-32 i.t. on day 20, 24 h, then 0.32–10 mg/kg morphine s.c.) of the same compound?
Its value is 1.2 (0.87–1.5) mg/kg.

And the “fold increase in morphine potency, HIV neuropathy” value (CD-1 mice [3]; [7])?
The value was 3.5 fold.

And the “baseline nociception (tail flick baseline responses)” value (CD-1 mice [4]; 0.01 nmol i.t. daily, 7-day regimen)?
Its value is “not altering baseline nociception”.

What about the “rescue of established morphine tolerance” value (CD-1 mice [4]; 3 days twice daily 10 mg/kg morphine s.c., 0.01 nmol i.t. on day 3, 24 h, 10 mg/kg morphine on day 4) of the same compound?
The value was “full anti-nociceptive response to morphine, comparable to their day 1 response”.

And the “A50 of morphine, Day 1 of tolerance regimen” value (CD-1 mice [4]; daily 0.01 nmol KU-32 i.t.)?
The value was 1.9 (1.3–2.5) mg/kg.

What about the “A50 of morphine, Day 4 of tolerance regimen” value (CD-1 mice [4]; daily 0.01 nmol KU-32 i.t.) of the same compound?
The value was 5.5 (3.5–12) mg/kg.
